Here are results for 1 compound from US6566374B1, “Method of treating or preventing microbial infections with loperamide” (priority 1998, dated 2003).

Type in all cases: cell-based
For experiment [1], the system named is S. mutans, S. sanguis, S. aureus, C. albicans, Methicillin resistant S. aureus, P. acnes. The experiment in a line: Effective kill times of antimicrobial solutions. The settings on record: loperamide in 2.5% dimethyl sulphoxide; sampled at 30 seconds, 1, 2 and 5 minutes; data only in FIGS. 1-6. The protocol:
A suitable broth culture of the test organism was prepared (see Table 3 below). Cultures were diluted (1:10) using a Ringer and Peptone solution. 30 ml volumes of loperamide made up in 2.5% dimethyl sulphoxide were prepared. The samples were then inoculated with 30 ml of the initial microorganism suspension, and at time intervals of 30 seconds, 1, 2 and 5 minutes, 1 ml of the sample was removed and added to 9 ml of Dey-Engley neutralizing broth. Two further serial dilutions were then prepared.
0.1 ml from the Dey-Engley broths and subsequent dilutions were spread plated and then incubated. See Table 3 below for the appropriate agar and incubation conditions.

The subject of experiment [2] is Streptococcus sanguis NCTC 10904. As to the kind of experiment: Nominal Inhibitory Concentration (spiral plater). Particulars: 24 hrs BA 37° C. The protocol: (§1) A broth, appropriate to the microorganism to be tested (see Table 1 below), was inoculated aseptically from a pure plate culture and then incubated as indicated in Table 1.
(§2) Following the correct incubation, the liquid culture was diluted in a sterile saline solution to give approximately 10^5 to 10^6 CFU/ml. The suspension was serially diluted and spread plates were prepared for each dilution so as to obtain an accurate CFU/ml value.
(§3) The spiral plater was prepared by passing one cupule of IMS followed by one cupule of sterile water through the plater with the valve open and vacuum pump on. With the spiral plater cam on “Linear Deposition”, the suspension of micoorganism to be tested was placed in a new cupule. The suspension was taken up, ensuring that the glass tube was full, and the organisms were then deposited in an even spiral onto agar plates.
(§4) The depth of the agar was measured on the plates and this value recorded. Negative control plates with no added active were produced in triplicate.
(§5) The spiral plater was washed with one cupule of IMS and one cupule of sterile deionised water in-between the inoculation of different microbial samples. Once the microbial inocula had dried, the spiral plater was washed and the cam changed to “Gradient Deposition”. The antimicrobial solution was deposited in a spiral gradient directly on top of the dried inoculated spiral. Loperamide hydrochloride was used at concentrations of 1% and 0.3% made up in 50% dimethyl sulphoxide.
(§6) The spiral plater was washed with one cupule of IMS and one of sterile deionised water in-between different antimicrobial solutions. The solutions were left to dry before being incubated, at 37° C. for 24 hr, +/−6 hr or 48 hr +/−6 hr for anaerobes (see Table 1).
(§7) Following incubation, the control plates were checked to have grown to the end of the spiral inoculum. Digital calipers were used to measure the distance between the inoculation point and the point where confluent growth starts. The distance value termed the Radial Advance was used to determine the Deposition Factor (DF). The NIC can be calculated from the following formula:
(§8) NIC=Nominal Inhibitory Concentration (e.g. ppm)
(§9) SC=Stock concentration of antimicrobial (e.g. ppm)
(§10) ha=height of agar in plate (mm)

Experiment [3] has as its system Escherichia coli NCTC 8545. As to the kind of experiment: Nominal Inhibitory Concentration (spiral plater). The settings on record: 24 hrs BA 37° C. The procedure: as §1, §2, §3, §4, §5, §6, §7, §8, §9, §10
For experiment [4], the system named is Pseudomonas aeruginosa ATCC 9027. The experiment in a line: Nominal Inhibitory Concentration (spiral plater). The settings on record: 24 hrs BA 37° C. The procedure: as §1, §2, §3, §4, §5, §6, §7, §8, §9, §10
In experiment [5] the test system is Pseudomonas stutzeri NCTC 10475. The experiment in a line: Nominal Inhibitory Concentration (spiral plater). The settings on record: 24 hrs BA 37° C. The procedure:
as §1, §2, §3, §4, §5, §6, §7, §8, §9, §10

The test system of experiment [6] is Fusobacterium nucleatum NCTC 10562. As to the kind of experiment: Nominal Inhibitory Concentration (spiral plater). Particulars: 48 hrs BA 37° C. (anaerobically). The procedure: as §1, §2, §3, §4, §5, §6, §7, §8, §9, §10
Experiment [7] has as its system Sphingomonas paucimobilis NCTC 11030. As to the kind of experiment: Nominal Inhibitory Concentration (spiral plater). The settings on record: 24 hrs BA 37° C. The protocol:
as §1, §2, §3, §4, §5, §6, §7, §8, §9, §10

For experiment [8], the system named is Pseudomonas cepacia ATCC 25416. The experiment in a line: Nominal Inhibitory Concentration (spiral plater). The settings on record: 24 hrs BA 37° C. The protocol: as §1, §2, §3, §4, §5, §6, §7, §8, §9, §10
The subject of experiment [9] is Micrococcus luteus NCIB 8166. The experiment in a line: Nominal Inhibitory Concentration (spiral plater). Particulars: 24 hrs BA 37° C. The protocol:
as §1, §2, §3, §4, §5, §6, §7, §8, §9, §10

For experiment [10], the system named is Streptococcus mutans NCTC 11061. As to the kind of experiment: Nominal Inhibitory Concentration (spiral plater). Particulars: 24 hrs BA 37° C. The procedure: as §1, §2, §3, §4, §5, §6, §7, §8, §9, §10
For experiment [11], the system named is Propionibacterium acnes NCTC 737. As to the kind of experiment: Nominal Inhibitory Concentration (spiral plater). The settings on record: 48 hrs BA 37° C. anaerobically, loperamide hydrochloride 1% and 0.3% in 50% dimethyl sulphoxide. The procedure: as §1, §2, §3, §4, §5, §6, §7, §8, §9, §10
Experiment [12] concerns Streptococcus oralis NCTC 11427. As to the kind of experiment: Nominal Inhibitory Concentration (spiral plater). The settings on record: 24 hrs BA 37° C. The protocol: as §1, §2, §3, §4, §5, §6, §7, §8, §9, §10
Experiment [13] concerns Staphylococcus epidermidis ATCC 8853. As to the kind of experiment: Nominal Inhibitory Concentration (spiral plater). The settings on record: 24 hrs TSA 37° C. The protocol:
as §1, §2, §3, §4, §5, §6, §7, §8, §9, §10

The subject of experiment [14] is Lactobacillus acidophillus NCTC 4505. The experiment in a line: Nominal Inhibitory Concentration (spiral plater). Particulars: 24 hrs BA 37° C. The protocol: as §1, §2, §3, §4, §5, §6, §7, §8, §9, §10
Experiment [15] concerns Bacillus subtilis ATCC 6633. The experiment in a line: Nominal Inhibitory Concentration (spiral plater). Particulars: 24 hrs BA 37° C. The protocol:
as §1, §2, §3, §4, §5, §6, §7, §8, §9, §10

In experiment [16] the test system is Candida albicans NCYC 1363. The experiment in a line: Nominal Inhibitory Concentration (spiral plater). Particulars: 24 hrs SDA 37° C. The protocol: as §1, §2, §3, §4, §5, §6, §7, §8, §9, §10
The subject of experiment [17] is Staphylococcus aureus ATCC 6538. The experiment in a line: Nominal Inhibitory Concentration (spiral plater). Particulars: 24 hrs TSA 37° C. The protocol:
as §1, §2, §3, §4, §5, §6, §7, §8, §9, §10

Each structure is given as a SMILES string.

As for `CN(C)C(=O)C(CCN1CCC(O)(c2ccc(Cl)cc2)CC1)(c1ccccc1)c1ccccc1` [Loperamide, 4-(p-chlorophenyl)-4-hydroxy-N,N-dimethyl-α,α-diphenyl-1-piperidinebutyramide], in experiment [1], the “bactericidal properties (kill time)” value is recorded as “good bactericidal properties”. Moreover, the NIC in experiment [2] is 27 ppm; in experiment [3] it was >165 ppm; in [4] it was >165 ppm; in experiment [5], 21 ppm; in experiment [6] it was 7 ppm; in experiment [7] it was 11 ppm. The NIC in [8] came out at 36 ppm; in experiment [9] it was 9 ppm; in experiment [10] it was 30 ppm; in [11] it was 16 ppm; in experiment [12], 24 ppm; in experiment [13], 33 ppm. The NIC came to 18 ppm in experiment [14], 9 ppm in experiment [15], 39 ppm in [16] and 34 ppm in experiment [17].
